This note sets out measurements from PubChem BioAssay (NCI).

Test systems include UACC-62 melanoma; HOP-92 NSCLC; 786-0 renal; CCRF-CEM leukemia; MALME-3M melanoma; TK-10 renal; SNB-19 CNS; RPMI-8226 leukemia; BT-549 breast; HL-60(TB) leukemia.
What all share (experiment): NCI anticancer screen, dose series, 48 h

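Values below derive from 48-hour exposures of cells grown in 96-well plates, with endpoints linearly interpolated between the two concentrations bracketing the appropriate inhibition level. GI50 marks 50% less growth. TGI is the concentration that stops growth completely.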 Bounds are passed on as bounds.

In the case of `NNc1c2ccccc2nc2ccccc12`, the GI50 with UACC-62 melanoma is 3.44 µM; in the experiment on HOP-92 NSCLC it was 5.19 µM; in the experiment on 786-0 renal, 6.2 µM; in the experiment on CCRF-CEM leukemia, 0.688 µM; with MALME-3M melanoma, 5.03 µM; in the experiment on TK-10 renal, 8.32 µM. For the same compound, the GI50 in the experiment with SNB-19 CNS was 5.89 µM; in the experiment on RPMI-8226 leukemia it was 0.558 µM; with BT-549 breast it was 4.15 µM; in the experiment on HL-60(TB) leukemia it was 1.78 µM. Besides, the TGI in the experiment on UACC-62 melanoma is 19.3 µM; with HOP-92 NSCLC, 43.6 µM; in the experiment with 786-0 renal it was 29.4 µM; in the experiment on CCRF-CEM leukemia, above 100 µM; with MALME-3M melanoma, 36.1 µM; in the experiment with TK-10 renal, 26.7 µM. For the same compound, the TGI in the experiment with SNB-19 CNS was above 100 µM; in the experiment on RPMI-8226 leukemia, 17.4 µM; with BT-549 breast, 36.8 µM; in the experiment with HL-60(TB) leukemia it was 16.9 µM.

As to `O=c1c(-c2ccccc2)coc2cc(OC/C(=N/O)c3ccc(F)cc3)ccc12`, the GI50 is 15.8 µM in the experiment on UACC-62 melanoma; 18.8 µM in the experiment with HOP-92 NSCLC; 19.3 µM with 786-0 renal; 26 µM in the experiment with CCRF-CEM leukemia; 10.1 µM in the experiment with MALME-3M melanoma; 16.9 µM in the experiment with TK-10 renal. Also, the GI50 in the experiment on SNB-19 CNS was 18.7 µM; in the experiment with RPMI-8226 leukemia, 18.8 µM; in the experiment with BT-549 breast it was 20.3 µM; with HL-60(TB) leukemia, 15 µM. Besides, the TGI with UACC-62 melanoma was 31.8 µM; with HOP-92 NSCLC, 44.9 µM; with 786-0 renal, 41.8 µM; with CCRF-CEM leukemia, above 100 µM; in the experiment on MALME-3M melanoma it was 31.9 µM; in the experiment with TK-10 renal it was 39.5 µM. Moreover, the TGI is 53.5 µM in the experiment with SNB-19 CNS, 59.7 µM with RPMI-8226 leukemia, 41.8 µM in the experiment on BT-549 breast and 89.7 µM in the experiment with HL-60(TB) leukemia.

As to `Cc1oc2c(c1C(=O)N1CC[C@@H](N)C1)C(=O)c1c(c(O)c3ccccc3c1O)C2=O`, the GI50 was 4.46 µM in the experiment with UACC-62 melanoma; 4.64 µM in the experiment on HOP-92 NSCLC; 3.93 µM in the experiment on 786-0 renal; 1.01 µM in the experiment on CCRF-CEM leukemia; 1.78 µM with MALME-3M melanoma; 3.07 µM with TK-10 renal. Moreover, the GI50 in the experiment with SNB-19 CNS is 2.45 µM; with RPMI-8226 leukemia, 2.51 µM; with BT-549 breast, 8.83 µM; with HL-60(TB) leukemia, 1.17 µM. Further, the TGI with UACC-62 melanoma worked out at 19.6 µM; with HOP-92 NSCLC, 17.4 µM; in the experiment on 786-0 renal, 17.3 µM; in the experiment on CCRF-CEM leukemia, 4.33 µM; in the experiment with MALME-3M melanoma, 7.62 µM; in the experiment with TK-10 renal, 16.3 µM. The TGI in the experiment with SNB-19 CNS amounted to 15.7 µM; in the experiment with RPMI-8226 leukemia it was 12.6 µM; in the experiment with BT-549 breast, 22.5 µM; in the experiment with HL-60(TB) leukemia, 4.31 µM.

`COc1ccc2c(c1)/C(=C\c1c[nH]c3ccc(OC)cc13)C(=O)N2`: the GI50 in the experiment on UACC-62 melanoma is 2.76 µM; in the experiment with HOP-92 NSCLC it was 1.48 µM; in the experiment on 786-0 renal it was 5.35 µM; in the experiment with CCRF-CEM leukemia, 2.84 µM; in the experiment with MALME-3M melanoma, 8.52 µM; in the experiment with TK-10 renal, 3.68 µM. Also, the GI50 was 6.66 µM in the experiment with SNB-19 CNS, 2.39 µM in the experiment on RPMI-8226 leukemia, 2.31 µM in the experiment with BT-549 breast and 2.97 µM with HL-60(TB) leukemia. Moreover, the TGI in the experiment on UACC-62 melanoma was 11.3 µM; in the experiment on HOP-92 NSCLC, 6.55 µM; in the experiment with 786-0 renal, 17.6 µM; with CCRF-CEM leukemia, 9.33 µM; in the experiment on MALME-3M melanoma it was 22.9 µM; in the experiment with TK-10 renal it was 13.3 µM. Also, the TGI was 20.1 µM in the experiment with SNB-19 CNS, 8.89 µM with RPMI-8226 leukemia, 9.1 µM in the experiment with BT-549 breast and 6.07 µM in the experiment on HL-60(TB) leukemia.

With `OCc1ccc(N2CCCC2)cc1Cl`, the GI50 in the experiment on UACC-62 melanoma is 0.879 µM; in the experiment with HOP-92 NSCLC, 2.22 µM; in the experiment with 786-0 renal, 27.5 µM; with CCRF-CEM leukemia it was 31.3 µM; in the experiment on MALME-3M melanoma it was 27.3 µM; with TK-10 renal, 0.201 µM. In addition, the GI50 in the experiment on SNB-19 CNS is above 100 µM; in the experiment with RPMI-8226 leukemia, 6.22 µM; in the experiment on BT-549 breast it was 32 µM; in the experiment with HL-60(TB) leukemia it was 13.7 µM. For the same compound, the TGI in the experiment with UACC-62 melanoma was 4.28 µM; with HOP-92 NSCLC it was 24.2 µM; with 786-0 renal, above 100 µM; with CCRF-CEM leukemia, above 100 µM; in the experiment on MALME-3M melanoma, 73 µM; in the experiment on TK-10 renal, 0.556 µM. For the same compound, the TGI with SNB-19 CNS was above 100 µM; with RPMI-8226 leukemia, above 84.5 µM; in the experiment on BT-549 breast, above 100 µM; in the experiment with HL-60(TB) leukemia it was above 75.6 µM.

In the case of `COc1cc2c(c(OC)c1OC)-c1c(cc3c(c1OC)OCO3)CC(C)C(C)(O)C2OC(=O)c1ccccc1` (stereo not given), the TGI is above 100 µM with UACC-62 melanoma; 73.7 µM in the experiment on HOP-92 NSCLC; above 100 µM with 786-0 renal; 63.9 µM in the experiment with CCRF-CEM leukemia; above 100 µM in the experiment with MALME-3M melanoma; above 100 µM with TK-10 renal. Besides, the TGI in the experiment on SNB-19 CNS was above 100 µM; in the experiment on RPMI-8226 leukemia, 79.3 µM; in the experiment on BT-549 breast, above 100 µM; in the experiment on HL-60(TB) leukemia it was 48.7 µM.

For the compound `O=S(=O)(NC1=NCCN1C(=S)SN1CCn2c1nsc2=S)c1cccc(OC(F)(F)F)c1`, the GI50 with UACC-62 melanoma is 9.68 µM; in the experiment on HOP-92 NSCLC it was 4.45 µM; in the experiment with 786-0 renal, 12 µM; with CCRF-CEM leukemia, 2.16 µM; with MALME-3M melanoma, 6.75 µM; in the experiment on TK-10 renal it was 13.8 µM. In addition, the GI50 with SNB-19 CNS was 18 µM; in the experiment with RPMI-8226 leukemia it was 2.06 µM; in the experiment with BT-549 breast, 25.7 µM; in the experiment on HL-60(TB) leukemia, above 100 µM. For the same compound, the TGI in the experiment with UACC-62 melanoma came to 21.6 µM; with HOP-92 NSCLC, 20.4 µM; in the experiment on 786-0 renal, 27.1 µM; with CCRF-CEM leukemia, 4.22 µM; in the experiment with MALME-3M melanoma, 23.3 µM; in the experiment with TK-10 renal it was 29.7 µM. The TGI in the experiment with SNB-19 CNS is 45.4 µM; in the experiment on RPMI-8226 leukemia, 4.44 µM; in the experiment with BT-549 breast, above 100 µM; in the experiment on HL-60(TB) leukemia, above 100 µM.

As to `CN(c1ccc(C#N)c(Cl)c1)C1CCC(NC(=O)c2ccc(N3CCN(C4CN(c5ccc6c(c5)C(=O)N(C5CCC(=O)NC5=O)C6=O)C4)CC3)cc2)CC1` (stereo not given), the GI50 in the experiment on UACC-62 melanoma is above 100 µM; with HOP-92 NSCLC, 10.2 µM; with 786-0 renal, above 100 µM; with CCRF-CEM leukemia, above 100 µM; with MALME-3M melanoma it was 48.8 µM; in the experiment on TK-10 renal, above 100 µM. Further, the GI50 is above 100 µM with SNB-19 CNS, above 100 µM in the experiment on RPMI-8226 leukemia, 98.6 µM with BT-549 breast and above 100 µM with HL-60(TB) leukemia. Besides, the TGI in the experiment with UACC-62 melanoma was above 100 µM; with HOP-92 NSCLC, 99.8 µM; in the experiment on 786-0 renal it was above 100 µM; in the experiment on CCRF-CEM leukemia, above 100 µM; with MALME-3M melanoma, above 100 µM; with TK-10 renal, above 100 µM. Besides, the TGI with SNB-19 CNS, in the experiment with RPMI-8226 leukemia, in the experiment on BT-549 breast and in the experiment on HL-60(TB) leukemia was above 100 µM each time.

As for `CC(=O)OC(C)C(OC(C)=O)C(OC(C)=O)C(/C=C/C1CC=CC(=O)O1)OC(C)=O` (stereo not given), the GI50 in the experiment with UACC-62 melanoma was 25.4 µM; in the experiment with HOP-92 NSCLC it was 20.8 µM; in the experiment on 786-0 renal it was 37.8 µM; in the experiment with CCRF-CEM leukemia, 30.3 µM; in the experiment with MALME-3M melanoma, 36.5 µM; with TK-10 renal it was 40.6 µM. Besides, the GI50 in the experiment on SNB-19 CNS is 33.5 µM; in the experiment on RPMI-8226 leukemia, 26.7 µM; in the experiment with BT-549 breast, 25.5 µM; in the experiment on HL-60(TB) leukemia, 20.4 µM. Also, the TGI was 67.8 µM with UACC-62 melanoma; 64.6 µM in the experiment on HOP-92 NSCLC; above 100 µM with 786-0 renal; above 100 µM in the experiment on CCRF-CEM leukemia; above 100 µM in the experiment on MALME-3M melanoma; above 100 µM in the experiment with TK-10 renal. Also, the TGI in the experiment with SNB-19 CNS was above 100 µM; with RPMI-8226 leukemia, 83.5 µM; with BT-549 breast, 70.6 µM; with HL-60(TB) leukemia it was 43.3 µM.

As to `O=NN(CCCl)C(=O)NC1CCC(=O)NC1=O` (stereo not given), the TGI in the experiment with UACC-62 melanoma amounted to 192 µM; in the experiment with HOP-92 NSCLC, 377 µM; in the experiment on 786-0 renal, 377 µM; with CCRF-CEM leukemia, 304 µM; in the experiment with MALME-3M melanoma, 481 µM; in the experiment on TK-10 renal, 1050 µM. For the same compound, the TGI is 934 µM with SNB-19 CNS, 617 µM with RPMI-8226 leukemia, 593 µM in the experiment with BT-549 breast and 359 µM with HL-60(TB) leukemia.
